# Source: ChEMBL document CHEMBL4004792, “Monascustin, an Unusual γ-Lactam from Red Yeast Rice” (J Nat Prod, 2017)
# Calls of active or inactive are those of the source. No cut-off for these calls is given here.
# Key:
# [1] = tested on: Peritoneal macrophage; experiment: Inhibition of LPS-stimulated TNFalpha secretion in C57BL6J mouse peritoneal macrophages at 50 uM after 24 hrs; format: functional, cell-based
# [2] = tested on: HCT-8; experiment: Cytotoxicity against human HCT8 cells at 10 uM after 24 hrs by MTT assay; format: functional, cell-based
# [3] = tested on: Bel-7402; experiment: Cytotoxicity against human Bel7402 cells at 10 uM after 24 hrs by MTT assay; format: functional, cell-based
# [4] = tested on: BGC-823; experiment: Cytotoxicity against human BGC823 cells at 10 uM after 24 hrs by MTT assay; format: functional, cell-based
# [5] = tested on: A549; experiment: Cytotoxicity against human A549 cells at 10 uM after 24 hrs by MTT assay; format: functional, cell-based
# [6] = tested on: A2780; experiment: Cytotoxicity against human A2780 cells at 10 uM after 24 hrs by MTT assay; format: functional, cell-based
# [7] = target: Histone deacetylase 1 (Homo sapiens, UniProt Q13547); experiment: Inhibition of human HDAC1 using H3(1-21)K9 after 60 mins by fluorescence assay
# Sequence of Histone deacetylase 1 (Q13547 whole entry): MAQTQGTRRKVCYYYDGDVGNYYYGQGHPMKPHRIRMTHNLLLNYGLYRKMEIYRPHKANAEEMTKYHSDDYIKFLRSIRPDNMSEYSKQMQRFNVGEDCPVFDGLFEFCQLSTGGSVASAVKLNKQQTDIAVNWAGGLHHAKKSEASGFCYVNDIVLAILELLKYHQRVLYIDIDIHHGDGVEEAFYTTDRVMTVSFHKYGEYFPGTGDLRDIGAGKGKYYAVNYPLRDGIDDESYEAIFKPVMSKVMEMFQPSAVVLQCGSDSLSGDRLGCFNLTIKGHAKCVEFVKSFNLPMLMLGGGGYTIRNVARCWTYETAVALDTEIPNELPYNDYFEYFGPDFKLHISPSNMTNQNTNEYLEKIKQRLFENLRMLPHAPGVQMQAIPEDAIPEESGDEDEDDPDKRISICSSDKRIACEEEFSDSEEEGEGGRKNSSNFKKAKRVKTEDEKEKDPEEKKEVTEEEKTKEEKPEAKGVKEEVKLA
compound,measurement,setting,value
CC(C)C[C@@]1(C(N)=O)NC(=O)C[C@]1(C)O,inhibition,[1],inactive
same,Activity,[2],inactive
same,Activity,[3],inactive
same,Activity,[4],inactive
same,Activity,[5],inactive
same,Activity,[6],inactive
same,IC50,[7],3.7 µM
